Assay [1] addresses TrkA (histidine-tagged recombinant human TrkA, cytoplasmic domain) (Homo sapiens (Human), UniProt P04629). The assay is described as follows: TrkA ELISA Assay. It is filed as biochemical. Conditions: Table 1; ELISA, 500 μM ATP; read-out: TrkA Enzyme IC50. The protocol:
An enzyme-linked immunosorbant assay (ELISA) was used to assess TrkA kinase activity in the presence of inhibitors. Immulon 4HBX 384-well microtiter plates (Thermo part #8755) were coated with a 0.025 mg/mL solution of poly (Glu, Ala, Tyr; 6:3:1; Sigma P3899). […] The reaction mixture was removed from the plate by washing with PBS containing 0.1% (v/v) Tween 20. The phosphorylated reaction product was detected using 0.2 μg/mL of a phosphotyrosine specific monoclonal antibody (clone PY20) conjugated to horseradish peroxidase in conjunction with the TMB Peroxidase Substrate System (KPL). After the addition of 1M phosphoric acid, the chromogenic substrate color intensity was quantitated via absorbance at 450 nm.

For another assay, the target named is Human Jak2 kinase domain (Homo sapiens (Human), UniProt O60674). The assay is described as follows: Jak2 Inhibition Assay (Omnia kinase assay). The format is biochemical. Conditions: read-out: Jak2 Enzyme IC50. As for the experimental part: The assays described in Examples C, D, E and F for the determination of JAK1, JAK2, JAK3 and Tyk2 kinase activity, respectively, utilized the Omnia® Kinase fluorescence peptide substrate-based technology (Invitrogen). […] The reactions were therefore read at excitation 360 nm and emission was measured at 485 nm every 50 seconds for 45 minutes using a PerkinElmer EnVision Multilabel Plate Reader.
Chain of Human Jak2 kinase domain (O60674 808-1132): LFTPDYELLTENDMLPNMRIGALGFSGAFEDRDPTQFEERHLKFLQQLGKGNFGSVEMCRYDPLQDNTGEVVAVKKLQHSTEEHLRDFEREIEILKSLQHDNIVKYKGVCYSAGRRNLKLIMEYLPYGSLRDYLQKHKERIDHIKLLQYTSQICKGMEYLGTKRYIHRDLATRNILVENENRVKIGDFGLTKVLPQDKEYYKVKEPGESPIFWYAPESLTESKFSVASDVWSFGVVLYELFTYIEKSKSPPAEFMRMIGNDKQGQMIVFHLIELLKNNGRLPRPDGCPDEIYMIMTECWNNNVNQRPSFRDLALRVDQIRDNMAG
The final buffer conditions for each of the JAK1, JAK2, JAK3 and Tyk2 assays were as follows: 25 mM HEPES, pH 7.4, 10 mM MgCl2, 0.01% Triton X-100 and 1 mM DTT.
Two-μL aliquots of these were transferred to a fresh plate for a ten-fold intermediate dilution with assay buffer. Five-μL aliquots of the diluted compounds were then transferred to 20-μL of assay mixtures described in Examples C, D, E and F for a final concentration of DMSO of 2%. […] For each plate, percent of control (POC) values were calculated for each well according to the following equation:
[formula] • where • Xmax=Average Uninhibited Controls • Xmin=Average Background IC50's were estimated from the POC's using a standard 4-parameter logistic model:
[formula] • where • A=Minimum Y (Bottom Asymptote) • B=Maximum Y (Top Asymptote) • C=EC50 • D=Slope Factor • X=Compound Concentration (nM) • Y=POC
The IC50 is defined as the concentration of inhibitor at which the POC equals 50 for the fitted curve.
Compounds of Formula I were screened for their ability to inhibit Jak2 using the general enzyme inhibition assay method, in which the assay mixture contained 500 μM ATP, 10 μM Omnia® Y7 peptide (Catalog # IVGN KNZ3071C, Invitrogen Corporation, Carlsbad, Calif.) and 4 nM Jak2 in a total volume of 20 μL. Human Jak2 kinase domain comprising amino acids 808-1132 was purchased from Invitrogen Corporation, Carlsbad, Calif. (catalog # IVGN PV4210).

The mark [2] stands for this setting: Table 1, 500 μM ATP, >1000 nM when >50% inhibition not observed at 1000 nM.

Where two headings read alike, the source gives them in different places.

Chain of TrkA (histidine-tagged recombinant human TrkA, cytoplasmic domain) (P04629 440-796): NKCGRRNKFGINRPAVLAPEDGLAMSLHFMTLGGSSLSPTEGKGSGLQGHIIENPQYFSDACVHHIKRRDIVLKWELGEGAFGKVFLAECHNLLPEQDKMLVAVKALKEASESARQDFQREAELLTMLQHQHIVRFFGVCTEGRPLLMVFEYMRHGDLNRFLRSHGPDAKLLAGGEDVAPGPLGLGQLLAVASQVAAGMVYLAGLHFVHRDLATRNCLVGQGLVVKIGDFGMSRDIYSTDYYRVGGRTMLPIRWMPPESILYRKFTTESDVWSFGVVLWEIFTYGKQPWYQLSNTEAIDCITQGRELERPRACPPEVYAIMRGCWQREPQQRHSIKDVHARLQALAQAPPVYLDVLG

On to `CC(C)(CO)CNC(=O)c1cnn2ccc(N3CCC[C@@H]3c3cncc(F)c3)nc12` [Example 125, (R)-5-(2-(5-fluoropyridin-3-yl)pyrrolidin-1-yl)-N-(3-hydroxy-2,2-dimethylpropyl)pyrazolo[1,5-a]pyrimidine-3-carboxamide], for which the IC50 in assay [1] was 12.8 nM; at Human Jak2 kinase domain (setting [2]), over 1000 nM.
For `CC(NC(=O)c1cnn2ccc(N3CCCC3c3cncc(F)c3)nc12)C1CC1` [Example 113, N-(1-cyclopropylethyl)-5-((R)-2-(5-fluoropyridin-3-yl)pyrrolidin-1-yl)pyrazolo[1,5-a]pyrimidine-3-carboxamide] the same measures were 3.2 nM and over 1000 nM.
Turning to `O=C(NC[C@@H](O)CO)c1cnn2ccc(N3CCC[C@@H]3c3cc(F)ccc3F)nc12` [Example 26, 5-((R)-2-(2,5-difluorophenyl)pyrrolidin-1-yl)-N—((R)-2,3-dihydroxypropyl)pyrazolo[1,5-a]pyrimidine-3-carboxamide], the IC50 in assay [1] is 1.3 nM; on Human Jak2 kinase domain (setting [2]) it was over 1000 nM.
As to `COc1ncc(F)cc1[C@H]1CCCN1c1ccn2ncc(C(=O)NCCO)c2n1` [Example 155, (R)-5-(2-(5-fluoro-2-methoxypyridin-3-yl)pyrrolidin-1-yl)-N-(2-hydroxyethyl)pyrazolo[1,5-a]pyrimidine-3-carboxamide], the IC50 is 0.2 nM in assay [1] and over 1000 nM at Human Jak2 kinase domain (setting [2]).
`COc1ccc(F)cc1[C@H]1CCCN1c1ccn2ncc(C(=O)NC[C@@H](O)CO)c2n1` [Example 56, N—((R)-2,3-dihydroxypropyl)-5-((R)-2-(5-fluoro-2-methoxyphenyl)pyrrolidin-1-yl)pyrazolo[1,5-a]pyrimidine-3-carboxamide]: the 50% inhibitory concentration (IC50) in assay [1] was 2.4 nM; on Human Jak2 kinase domain, over 1000 nM.
On to `O=C(NCCc1c[nH]cn1)c1cnn2ccc(N3CCC[C@@H]3c3cc(F)ccc3F)nc12` [Example 25, (R)—N-(2-(1H-imidazol-4-yl)ethyl)-5-(2-(2,5-difluorophenyl)pyrrolidin-1-yl)pyrazolo[1,5-a]pyrimidine-3-carboxamide], for which the values for the concentration for half-maximal inhibition (IC50) (in assay [1]; on Human Jak2 kinase domain (setting [2])) were 0.4 nM and over 1000 nM, respectively.
For `NC(=O)c1cnn2ccc(N3CCC[C@@H]3c3cc(F)ccc3OCCN3CCOCC3)nc12` [Example 86, (R)-5-(2-(5-fluoro-2-(2-morpholinoethoxy)phenyl)pyrrolidin-1-yl)pyrazolo[1,5-a]pyrimidine-3-carboxamide] the same measures were 26.7 nM and over 1000 nM.
For `CONC(=O)c1cnn2ccc(N3CCC[C@@H]3c3cncc(F)c3)nc12` [Example 73, (R)-5-(2-(5-fluoropyridin-3-yl)pyrrolidin-1-yl)-N-methoxypyrazolo[1,5-a]pyrimidine-3-carboxamide], in that order: 48.5 nM and over 1000 nM.
In the case of `CN(C)C(=O)c1cnn2ccc(N3CCC[C@@H]3c3cc(F)ccc3F)nc12` [Example 27, (R)-5-(2-(2,5-difluorophenyl)pyrrolidin-1-yl)-N,N-dimethylpyrazolo[1,5-a]pyrimidine-3-carboxamide], the values for the IC50 (in assay [1]; on Human Jak2 kinase domain (setting [2])) were 214 nM and over 1000 nM, respectively.
Consider `CC(C)(O)CNC(=O)c1cnn2ccc(N3CCC[C@@H]3c3cncc(F)c3)nc12` [Example 111, (R)-5-(2-(5-fluoropyridin-3-yl)pyrrolidin-1-yl)-N-(2-hydroxy-2-methylpropyl)pyrazolo[1,5-a]pyrimidine-3-carboxamide], for which the IC50 in assay [1] was 37.8 nM; at Human Jak2 kinase domain (setting [2]), over 1000 nM.
In the case of `O=C(NCCN1CCOCC1)c1cnn2ccc(N3CCC[C@@H]3c3cc(F)ccc3F)nc12` [Example 4, (R)-5-(2-(2,5-difluorophenyl)pyrrolidin-1-yl)-N-(2-morpholinoethyl)pyrazolo[1,5-a]pyrimidine-3-carboxamide], the IC50 in assay [1] was 0.95 nM; at Human Jak2 kinase domain (setting [2]), over 1000 nM.
In the case of `COCCOc1ccc(F)cc1[C@H]1CCCN1c1ccn2ncc(C(N)=O)c2n1` [Example 89, (R)-5-(2-(5-fluoro-2-(2-methoxyethoxy)phenyl)pyrrolidin-1-yl)pyrazolo[1,5-a]pyrimidine-3-carboxamide], the IC50 in assay [1] is 3.6 nM; on Human Jak2 kinase domain (setting [2]), over 1000 nM.
As for `O=C(NCC(F)F)c1cnn2ccc(N3CCC[C@@H]3c3cncc(F)c3)nc12` [Example 134, (R)-N-(2,2-difluoroethyl)-5-(2-(5-fluoropyridin-3-yl)pyrrolidin-1-yl)pyrazolo[1,5-a]pyrimidine-3-carboxamide], the IC50 is 7.4 nM in assay [1] and over 1000 nM on Human Jak2 kinase domain (setting [2]).
For `COc1ncc(F)cc1[C@H]1CCCN1c1ccn2ncc(C(=O)NC[C@H](C)O)c2n1` [Example 156, 5-((R)-2-(5-fluoro-2-methoxypyridin-3-yl)pyrrolidin-1-yl)-N-((S)-2-hydroxypropyl)pyrazolo[1,5-a]pyrimidine-3-carboxamide], in that order: 2.1 nM and over 1000 nM.
For `CC(C)(C)NC(=O)c1cnn2ccc(N3CCC[C@@H]3c3cc(F)ccc3F)nc12` [Example 1, (R)—N-tert-butyl-5-(2-(2,5-difluorophenyl)pyrrolidin-1-yl)pyrazolo[1,5-a]pyrimidine-3-carboxamide] the same measures were 0.7 nM and over 1000 nM.
For `C[C@@H](CO)NC(=O)c1cnn2ccc(N3CCC[C@@H]3c3cc(F)ccc3F)nc12` [Example 177, 5-((R)-2-(2,5-difluorophenyl)pyrrolidin-1-yl)-N-((S)-1-hydroxypropan-2-yl)pyrazolo[1,5-a]pyrimidine-3-carboxamide] the same measures were 1.8 nM and over 1000 nM.
Turning to `O=C(N[C@H]1CC[C@H](O)CC1)c1cnn2ccc(N3CCC[C@@H]3c3cc(F)ccc3F)nc12` [Example 7, 5-((R)-2-(2,5-difluorophenyl)pyrrolidin-1-yl)-N-((trans)-4-hydroxycyclohexyl)pyrazolo[1,5-a]pyrimidine-3-carboxamide], the concentration for half-maximal inhibition (IC50) in assay [1] came to 0.45 nM; at Human Jak2 kinase domain (setting [2]) it was 107 nM.
For `C[C@@H](NC(=O)c1cnn2ccc(N3CCC[C@@H]3c3cncc(F)c3)nc12)C(F)(F)F` [Example 129, 5-((R)-2-(5-fluoropyridin-3-yl)pyrrolidin-1-yl)-N-((R)-1,1,1-trifluoropropan-2-yl)pyrazolo[1,5-a]pyrimidine-3-carboxamide], in that order: 8 nM and over 1000 nM.
For `COc1ncc(F)cc1[C@H]1CCCN1c1ccn2ncc(C(=O)NCC(O)CO)c2n1` (stereo partly drawn) [Example 149, N-(2,3-dihydroxypropyl)-5-((R)-2-(5-fluoro-2-methoxypyridin-3-yl)pyrrolidin-1-yl)pyrazolo[1,5-a]pyrimidine-3-carboxamide] the same measures were 6.1 nM and over 1000 nM.
Take `COCCNC(=O)c1cnn2ccc(N3CCC[C@@H]3c3cc(F)ccc3F)nc12` [Example 172, 5-((R)-2-(2,5-difluorophenyl)pyrrolidin-1-yl)-N-(2-methoxyethyl)pyrazolo[1,5-a]pyrimidine-3-carboxamide]: the half-inhibitory concentration (IC50) in assay [1] is 2.5 nM; on Human Jak2 kinase domain (setting [2]), over 1000 nM.
For `CNC(=O)c1cnn2ccc(N3CCC[C@@H]3c3cc(F)ccc3F)nc12` [Example 10, (R)-5-(2-(2,5-difluorophenyl)pyrrolidin-1-yl)-N-methylpyrazolo[1,5-a]pyrimidine-3-carboxamide] the same measures were 1.05 nM and over 1000 nM.
For `O=C(Nc1ccc(F)cn1)c1cnn2ccc(N3CCC[C@@H]3c3cncc(F)c3)nc12` [Example 95, (R)—N-(5-fluoropyridin-2-yl)-5-(2-(5-fluoropyridin-3-yl)pyrrolidin-1-yl)pyrazolo[1,5-a]pyrimidine-3-carboxamide] the same measures were 5.4 nM and over 1000 nM.
In the case of `CC(C)(C)NC(=O)c1cnn2ccc(N3CCC[C@@H]3c3cncc(F)c3)nc12` [Example 53, (R)—N-tert-butyl-5-(2-(5-fluoropyridin-3-yl)pyrrolidin-1-yl)pyrazolo[1,5-a]pyrimidine-3-carboxamide], the IC50 in assay [1] is 10.4 nM; on Human Jak2 kinase domain (setting [2]) it was over 1000 nM.
For the compound `COc1ncc(F)cc1[C@H]1CCCN1c1ccn2ncc(C(=O)NC3CC3)c2n1` [Example 79, (R)—N-cyclopropyl-5-(2-(5-fluoro-2-methoxypyridin-3-yl)pyrrolidin-1-yl)pyrazolo[1,5-a]pyrimidine-3-carboxamide], the IC50 in assay [1] was 1.3 nM; on Human Jak2 kinase domain, 698 nM.

For the origin of these results see patent US8791123B2, “Substituted pyrazolo[1,5-a]pyrimidine compounds as Trk kinase inhibitors” (Array Biopharma, Inc., priority 2009, dated 2014).
